Reference: patent US20210154170A1, “METHODS OF TREATING NEUROPATHIC PAIN” (Biogen MA Inc., priority 2018, published 2021)

Columns and labels:
[1] = Free fraction of Example 1 in plasma; type: in vitro ADME; conditions: human
[2] = Phase 1 ABPM study, pharmacokinetics; type: in vivo, human
Description: This was a Phase 1, randomized, double-blind, placebo-controlled, repeat dose, 2-period cross-over study to investigate the effect of BIIB074 300-400 mg bid on ambulatory blood pressure (ABP) in healthy participants (FIG. 2). The study comprised: screening (to occur a maximum of 30 days before the first baseline assessment); two 36-day treatment periods, each preceded by a baseline visit and separated by a 7-day washout (to minimize possible carry over effects); and a follow-up period of 7-14 days after last dose. Prior to this study, no females had received BIIB074; for this reason, a single dose BIIB074 session at the dose level of 400 mg was also conducted in female participants one week prior to the period 1 baseline visit. Following this session, some participants were predicted to exceed the predefined PK limit (area under the plasma concentration-time curve [AUC] 97 μg·h/mL) when receiving 400 mg bid at steady state. Therefore, in the subsequent phases of the study, all female participants received a lower dose of 300 mg bid (males received 400 mg bid).
The primary endpoint was change in 24 h average SBP and DBP from baseline to day 36 as determined by ABPM. Secondary outcome measures included: change in 24 h average SBP and DBP from baseline to days 4 and 15; change in average SBP and DBP within a 12 h dosing interval from baseline to days 14 and 35 (inpatient); change in 24 h average ambulatory heart rate from baseline to days 4, 15 and 36; proportion of participants whose 24 h SBP and DBP increased by <5, 5-9, 10-14, 15-19, and >20 mm Hg compared with baseline; PK parameters of BIIB074 following a single oral dose in healthy female participants, and following repeated oral doses given twice daily to healthy male and female participants; PK/pharmacodynamic (PD) analyses to examine the correlation between ABP and plasma levels and/or metrics of the systemic exposure of BIIB074.
ABPM data were analyzed using a repeated measures mixed effects model, whereby fixed effects were treatment, day, treatment*day, period, average baseline*day, period adjusted baseline*day, sex and treatment*sex; random effect was subject; and repeated effect was day. All summary statistics were carried out using SAS 8.02 for UNIX running under the Harmonisation of Analysis and Reporting Program (HARP) environment. PK parameters were calculated by standard non-compartmental analysis according to working practices and using Win Nonlin Pro v. 5.2.
The safety population was the primary analysis population for this study and included all participants who received one or more doses of BIIB074. The PK population was defined as participants in the safety population for whom a PK sample was obtained and analyzed.

[3] = system: healthy subjects; test: Phase 1 valproic acid interaction study, safety and tolerability
From the text: • To evaluate the safety and tolerability of BIIB074 when administered alone and when coadministered with the UGT inhibitor valproic acid. • The endpoints that relate to this objective are the incidence of adverse events (AEs) and serious adverse events (SAEs), and changes in clinical laboratory parameters, vital signs, 12-lead electrocardiograms (ECGs), and Columbia Suicide Severity Rating Scale (C-SSRS) assessments. • To evaluate the effect of the UGT inhibitor valproic acid on the PK of the M13, M14, and M16 metabolites of BIIB074. • The endpoints that relate to this objective are: Cmax, AUCinf, AUClast, Tmax, Tlast, t1/2, and metabolite to parent ratio in AUC (MRAUC) of the M13, M14, and M16 metabolites of BIIB074
1. A single oral dose of BIIB074 administered in the morning on Days 1 and 16 following an 8-hour fast. The Day 16 dose was coadministered with the morning dose of valproic acid. 2. Valproic acid 500 mg TID was administered on Days 8 through 22. The morning dose on Day 16 was coadministered with BIIB074 following an 8-hour fast. 3. Blood samples for BIIB074 and metabolite PK collected predose and through 168 hours postdose on Days 1 through 8 and Days 16 through 23. 4. Single blood samples collected on Days 13 through 15 prior to the morning dose of valproic acid only, in order to determine valproic acid trough levels.

[4] = system: human hepatocytes; test: Metabolism in human hepatocytes; type: in vitro ADME
[5] = system: dogs; test: Preclinical safety pharmacology, cardiovascular parameters; type: in vivo, dog; conditions: data not shown
From the text: The 36 day treatment duration in this study was rationally designed to determine whether tolerance developed for any potential effects of BIIB074 on SBP or DBP, since BP effects resolved by day 28 in the earlier phase 1 trial. The data from this study show a slight trend towards a decrease in the BP difference between BIIB074 and placebo between day 4 and day 35, although differences were minimal at all time points. […] Thus, the body of evidence, encompassing clinical and preclinical studies, supports safety and minimal effects of BIIB074 on BP/cardiovascular parameters.

[6] = system: trigeminal neuralgia; conditions: TN, 150 mg tid; cited from earlier work

Cl.NC(=O)[C@@H]1CC[C@H](c2ccc(OCc3ccccc3F)cc2)N1 [Example 1, (5R)-5-(4-{[(2-Fluorophenyl)methyl]oxy}phenyl)-L-prolinamide hydrochloride]
fraction unbound ([1]; listed as 150 mg tid): 0.032
fraction unbound ([1]; listed as 200 mg bid): 0.036
fraction unbound ([1]; listed as 250 mg tid): 0.032
fraction unbound ([1]; listed as 350 mg bid): 0.032
AUCex ([2]; 400 mg single dose, female): 15.2%
tmax ([2]; Day 1, 300 mg bid, female): 1.50 h
tmax ([2]; Day 14, 300 mg bid, female): 1.50 h
AUC(0-12) ([2]; Day 14, 400 mg bid, male): 32100 (23.5) ng · h/mL
Cmax ([2]; Day 35, 300 mg bid, female): 3990 (26.6) ng/mL
AUC(0-24) in males (400 mg bid) higher than in females (300 mg bid) ([2]; days 14 and 35, on average): 10%
Cmax in males (400 mg bid) higher than in females (300 mg bid) ([2]; days 14 and 35, on average): 11-19%
Dose-normalized AUC lower in male than in female participants ([2]; repeat dosing, days 14 and 35): 17-18%
Dose-normalized Cmax lower in male than in female participants ([2]; repeat dosing, days 14 and 35): 11-17%
Abdominal pain ([3]; human, in vivo): 0 n (%)
Asthenia ([3]; human, in vivo): 0 n (%)
Cardiac disorders ([3]; human, in vivo): 0 n (%)
Diarrhoea ([3]; human, in vivo): 0 n (%)
Dizziness ([3]; human, in vivo): 0 n (%)
Dyspepsia ([3]; human, in vivo): 0 n (%)
Events leading to drug withdrawal ([3]; human, in vivo): 0 n (%)
Events leading to study withdrawal ([3]; human, in vivo): 0 n (%)
Faeces soft ([3]; human, in vivo): 0 n (%)
Gastrointestinal disorders ([3]; human, in vivo): 1 (3.3) n (%)
General disorders and administration site conditions ([3]; human, in vivo): 0 n (%)
Glossodynia ([3]; human, in vivo): 1 (3.3) n (%)
Headache ([3]; human, in vivo): 1 (3.3) n (%)
Nausea ([3]; human, in vivo): 0 n (%)
Nervous system disorders ([3]; human, in vivo): 1 (3.3) n (%)
Non-cardiac chest pain ([3]; human, in vivo): 0 n (%)
Number of subjects with any event ([3]; human, in vivo): 2 (6.7) n (%)
Pallor ([3]; human, in vivo): 0 n (%)
Palpitations ([3]; human, in vivo): 0 n (%)
Pruritus ([3]; human, in vivo): 0 n (%)
Related event ([3]; human, in vivo): 0 n (%)
Related serious event ([3]; human, in vivo): 0 n (%)
Serious event ([3]; human, in vivo): 0 n (%)
Severity: Mild ([3]; human, in vivo): 2 (6.7) n (%)
Severity: Moderate ([3]; human, in vivo): 0 n (%)
Severity: Severe ([3]; human, in vivo): 0 n (%)
Skin and subcutaneous tissue disorders ([3]; human, in vivo): 0 n (%)
TEAEs considered related to BIIB074 ([3]; human, in vivo): No TEAEs were considered related to BIIB074
Vascular disorders ([3]; human, in vivo): 0 n (%)
Vomiting ([3]; human, in vivo): 0 n (%)
Safety conclusion ([3]; in vivo): safe and well tolerated
Fatal event ([3]; per treatment period): 0 n (%)
Main route of metabolism [4]: mainly metabolized by uridine diphosphate glucuronosyltransferases (UGTs)
Effects on cardiovascular parameters [5]: no effects
Clinical efficacy [6]: EFFICACY OBSERVED in TN
